21 compounds from PMC8508903, “Novel Dipyridinium Lipophile-Based Ionic Liquids Tethering Hydrazone Linkage: Design, Synthesis and Antitumorigenic Study” (International Journal of Molecular Sciences, 2021) can be followed below.

One data set relates to A549 lung cancer cells. Put plainly: MTT cell viability assay, A549. Format: cell-based, human. The conditions noted are these: mean of three independent experiments (N = 9). How it is done:
(§1) To evaluate the effect of the examined series on the viability of different lung cancer cells, MTT assay was conducted after exposing A549, H1299, and H661 cell lines to increasing concentrations of each compound for 48 h. […] Table 2 and Supplementary Figure S92 (see Supplementary Materials) show the 50% inhibitory concentration (IC50) values for the compounds under investigation in A549, H1299, and H661 lung cancer cells.
(§2) The human lung cancer cell lines A549, H1299 and H661 and the normal cells dermal fibroblasts were obtained from the American Type Culture Collection ATCC. Cells were cultured as a monolayer at seeding density of 8 × 10^3 cells per well in high glucose Dulbecco’s modified eagle medium (DMEM) (Invitrogen, USA), as previously described. The in vitro assessment of the antitumorigenic activities related to the studied compounds was undertaken using the 3-(4,5-dimethylthiazol-2yl)-2,5-diphenyl tetrazolium bromide (MTT) colorimetric assay, as previously reported. The compounds under investigation were tested in three triplicates of each concentration in three independent assays for a total of nine replicates. Both positive (cisplatin) and negative (untreated culture) controls were applied under the same experimental conditions. Cells were cultured for 48 h at 37 °C in a 5% CO2 incubator. Afterwards, MTT assay was carried out where viable cell count was determined based on the amount of formazan crystals, as verified by the absorbance at 490 nm.
(§3) Data was analyzed by Graphpad Prism software (Graphpad Software Inc. Jolla, CA, USA) for the determination of IC50 value. All data were expressed as the average of triplicate experiments.
Background: Tetrazolium dyes change colour on reduction, which living cells bring about.

Another data set has as its system H1299 lung cancer cells. In words: MTT cell viability assay, H1299. Format: cell-based, human. The conditions noted are these: mean of three independent experiments (N = 9). How it is done:
as §1, §2, §3

For the next data set, the system named is H661 lung cancer cells. In words: MTT cell viability assay, H661. Format: cell-based, human. The conditions noted are these: mean of three independent experiments (N = 9). Here is the method: as §1, §2, §3
The next data set deals with human dermal fibroblasts. In words: MTT cell viability assay, normal dermal fibroblasts. The following applies: 48 h, noncancerous human dermal fibroblasts. Format: cell-based. How it is done: as §1, §2, §3

Structures are written as SMILES. Counter-ions that a name gives are not always drawn. A value given as a limit tells only on which side of the number the result lay.

For orientation: melting point means the temperature, or range, at which the solid turns liquid. As to `CCCCCCCC[n+]1ccc(C(=O)N/N=C/c2ccc[n+](CCCCCCCC)c2)cc1` (as salt: phosphate) [Compound 16, 1-Octyl-3-((2-(1-octylpyridin-1-ium-4-carbonyl)hydrazono)methyl)pyridin-1-ium Hexafluorophosphate], the melting point lay in the range of 58 to 59 °C.

On to `CCCCCCCCCC[n+]1ccc(C(=O)N/N=C/c2ccc[n+](CCCCCCCCCC)c2)cc1` (as salt: phosphate) [Compound 22, 1-Decyl-3-((2-(1-decylpyridin-1-ium-4-carbonyl)hydrazono)methyl)pyridin-1-ium Hexafluorophosphate], for which the melting point lay in the range of 42 to 44 °C.

Broadly, the IC50 is the concentration needed to halve the response being measured. A lower IC50 goes with greater potency. Consider `N.N.[Cl][Pt][Cl]` [Cisplatin, cisplatin, reference compound], for which the IC50 in the data set with A549 lung cancer cells (48 h) is 23 µM; with H1299 lung cancer cells (48 h), 18 µM; with H661 lung cancer cells (48 h), 32 µM; in the data set with human dermal fibroblasts, over 100 µM.

On to `CCCCCCCC[n+]1ccc(C(=O)NN=Cc2ccc[n+](CCCCCCCC)c2)cc1.[I-].[I-]` [Compound 9, 1-Octyl-3-((2-(1-octylpyridin-1-ium-4-carbonyl)hydrazono)methyl)pyridin-1-ium Iodide], for which the melting point is 82 to 84 °C. In the data set on A549 lung cancer cells (48 h), this compound gave an IC50 of 75.3 µM. This compound also had an IC50 in the data set on H1299 lung cancer cells (48 h) of 64.3 µM. The same compound gave a 50% inhibitory concentration (IC50) in the data set with H661 lung cancer cells (48 h) of 74.2 µM. The concentration for half-maximal inhibition (IC50) in the data set with human dermal fibroblasts is over 300 µM.

For the compound `CCCCCCCCC[n+]1ccc(C(=O)NN=Cc2ccc[n+](CCCCCCCCC)c2)cc1.[I-].[I-]` [Compound 10, 1-Nonyl-3-((2-(1-nonylpyridin-1-ium-4-carbonyl)hydrazono)methyl)pyridin-1-ium Iodide], the melting point lay within 76 to 78 °C. The same compound showed an IC50 in the data set with A549 lung cancer cells (48 h) of 55.6 µM. The compound further displayed an IC50 in the data set on H1299 lung cancer cells (48 h) of 63.1 µM. In addition, half-maximal inhibition with H661 lung cancer cells (48 h) (IC50) was put at 60.1 µM. This compound yielded a 50% inhibitory concentration (IC50) in the data set on human dermal fibroblasts of over 300 µM.

In turn, `CCCCCCCCCC[n+]1ccc(C(=O)NN=Cc2ccc[n+](CCCCCCCCCC)c2)cc1.[I-].[I-]` [Compound 11, 1-Decyl-3-((2-(1-decylpyridin-1-ium-4-carbonyl)hydrazono)methyl)pyridin-1-ium Iodide] registered a melting point of 70 to 72 °C. The compound further gave an IC50 in the data set on A549 lung cancer cells (48 h) of 15.1 µM. Moreover, the half-maximal inhibitory concentration (IC50) with H1299 lung cancer cells (48 h) was 19 µM. The compound further came in with an IC50 in the data set on H661 lung cancer cells (48 h) of 23.5 µM. In the data set on human dermal fibroblasts, the IC50 is over 300 µM.

As for `CCCCCCCCCCCCCC[n+]1ccc(C(=O)NN=Cc2ccc[n+](CCCCCCCCCCCCCC)c2)cc1` [Compound 13, 1-Tetradecyl-3-((2-(1-tetradecylpyridin-1-ium-4-carbonyl)hydrazono)methyl)pyridin-1-ium Iodide], the IC50 in the data set with A549 lung cancer cells (48 h) is 36.8 µM; in the data set on H1299 lung cancer cells (48 h) it was 38 µM; in the data set with H661 lung cancer cells (48 h), 38.2 µM; in the data set with human dermal fibroblasts, over 300 µM.

As to `CCCCCCCCCCCCCCCC[n+]1ccc(C(=O)NN=Cc2ccc[n+](CCCCCCCCCCCCCCCC)c2)cc1` [Compound 14, 1-Hexadecyl-3-((2-(1-hexadecylpyridin-1-ium-4-carbonyl)hydrazono)methyl)pyridin-1-ium Iodide], the IC50 in the data set on A549 lung cancer cells (48 h) is 7.11 µM; in the data set with H1299 lung cancer cells (48 h), 10.1 µM; in the data set with H661 lung cancer cells (48 h) it was 11.2 µM; in the data set on human dermal fibroblasts it was over 300 µM.

With `CCCCCCCC[n+]1ccc(C(=O)NN=Cc2ccc[n+](CCCCCCCC)c2)cc1` [Compound 17, 1-Octyl-3-((2-(1-octylpyridin-1-ium-4-carbonyl)hydrazono)methyl)pyridin-1-ium Tetrafluoroborate], the IC50 is 69.1 µM in the data set on A549 lung cancer cells (Homo sapiens, A549, 48 h); 66 µM in the data set on H1299 lung cancer cells (Homo sapiens, NCI-H1299, 48 h); 61.2 µM in the data set with H661 lung cancer cells (Homo sapiens, NCI-H661, 48 h); over 300 µM in the data set with human dermal fibroblasts (Homo sapiens, Fibroblast).

In the case of `CCCCCCCC[n+]1ccc(C(=O)NN=Cc2ccc[n+](CCCCCCCC)c2)cc1` [Compound 18, 1-Octyl-3-((2-(1-octylpyridin-1-ium-4-carbonyl)hydrazono)methyl)pyridin-1-ium Trifluoroacetate], the IC50 in the data set on A549 lung cancer cells (48 h) is 78.5 µM; in the data set on H1299 lung cancer cells (48 h), 71 µM; in the data set with H661 lung cancer cells (48 h), 74.5 µM; with human dermal fibroblasts, over 300 µM.

In the case of `CCCCCCCCC[n+]1ccc(C(=O)NN=Cc2ccc[n+](CCCCCCCCC)c2)cc1` [Compound 20, 1-Nonyl-3-((2-(1-nonylpyridin-1-ium-4-carbonyl)hydrazono)methyl)pyridin-1-ium Tetrafluoroborate], the IC50 was 31.4 µM in the data set on A549 lung cancer cells (Homo sapiens, A549, 48 h); 32.6 µM in the data set with H1299 lung cancer cells (48 h); 33 µM in the data set with H661 lung cancer cells (48 h); over 300 µM in the data set on human dermal fibroblasts (Homo sapiens, Fibroblast).

As to `CCCCCCCCC[n+]1ccc(C(=O)NN=Cc2ccc[n+](CCCCCCCCC)c2)cc1` [Compound 21, 1-Nonyl-3-((2-(1-nonylpyridin-1-ium-4-carbonyl)hydrazono)methyl)pyridin-1-ium Trifluoroacetate], the IC50 in the data set with A549 lung cancer cells (48 h) is 33.5 µM; in the data set with H1299 lung cancer cells (48 h), 28 µM; with H661 lung cancer cells (48 h), 19.4 µM; in the data set on human dermal fibroblasts it was over 300 µM.

As to `CCCCCCCCCC[n+]1ccc(C(=O)NN=Cc2ccc[n+](CCCCCCCCCC)c2)cc1` [Compound 24, 1-Decyl-3-((2-(1-decylpyridin-1-ium-4-carbonyl)hydrazono)methyl)pyridin-1-ium Trifluoroacetate], the IC50 with A549 lung cancer cells (48 h) was 20 µM; in the data set on H1299 lung cancer cells (48 h), 19 µM; in the data set with H661 lung cancer cells (48 h) it was 18.1 µM; in the data set with human dermal fibroblasts, over 300 µM.

Regarding `CCCCCCCCCCCC[n+]1ccc(C(=O)N/N=C/c2ccc[n+](CCCCCCCCCCCC)c2)cc1` [Compound 26, 11-Dodecyl-3-((2-(1-dodecylpyridin-1-ium-4-carbonyl)hydrazono)methyl)pyridin-1-ium Tetrafluoroborate], the IC50 with A549 lung cancer cells (Homo sapiens, A549, 48 h) was 44 µM; in the data set with H1299 lung cancer cells (Homo sapiens, NCI-H1299, 48 h) it was 39.3 µM; in the data set on H661 lung cancer cells (Homo sapiens, NCI-H661, 48 h), 40.4 µM; with human dermal fibroblasts (Homo sapiens, Fibroblast) it was over 300 µM.

In the case of `CCCCCCCCCCCC[n+]1ccc(C(=O)NN=Cc2ccc[n+](CCCCCCCCCCCC)c2)cc1` [Compound 27, 1-Dodecyl-3-((2-(1-dodecylpyridin-1-ium-4-carbonyl)hydrazono)methyl)pyridin-1-ium Trifluoroacetate], the half-maximal inhibitory concentration (IC50) is 14.3 µM in the data set on A549 lung cancer cells (Homo sapiens, A549, 48 h); 12.1 µM in the data set on H1299 lung cancer cells (48 h); 10.5 µM in the data set on H661 lung cancer cells (48 h); over 300 µM in the data set with human dermal fibroblasts (Homo sapiens, Fibroblast).

`CCCCCCCCCCCCCC[n+]1ccc(C(=O)NN=Cc2ccc[n+](CCCCCCCCCCCCCC)c2)cc1` [Compound 29, 1-Tetradecyl-3-((2-(1-tetradecylpyridin-1-ium-4-carbonyl)hydrazono)methyl)pyridin-1-ium Tetrafluoroborate]: the IC50 in the data set on A549 lung cancer cells (Homo sapiens, A549, 48 h) was 42.1 µM; with H1299 lung cancer cells (Homo sapiens, NCI-H1299, 48 h), 44.6 µM; with H661 lung cancer cells (Homo sapiens, NCI-H661, 48 h), 46.8 µM; with human dermal fibroblasts (Homo sapiens, Fibroblast) it was over 300 µM.

Regarding `CCCCCCCCCCCCCC[n+]1ccc(C(=O)NN=Cc2ccc[n+](CCCCCCCCCCCCCC)c2)cc1` [Compound 30, 1-Tetradecyl-3-((2-(1-tetradecylpyridin-1-ium-4-carbonyl)hydrazono)methyl)pyridin-1-ium Trifluoroacetate], the IC50 was 38.6 µM with A549 lung cancer cells (48 h), 38.5 µM in the data set on H1299 lung cancer cells (48 h), 41.9 µM in the data set on H661 lung cancer cells (48 h) and over 300 µM with human dermal fibroblasts.

Take `CCCCCCCCCCCCCCCC[n+]1ccc(C(=O)NN=Cc2ccc[n+](CCCCCCCCCCCCCCCC)c2)cc1` [Compound 32, 1-Hexadecyl-3-((2-(1-hexadecylpyridin-1-ium-4-carbonyl)hydrazono)methyl)pyridin-1-ium Tetrafluoroborate]: the IC50 was 114 µM in the data set with A549 lung cancer cells (48 h); 108 µM with H1299 lung cancer cells (48 h); 104 µM in the data set with H661 lung cancer cells (48 h); over 300 µM with human dermal fibroblasts (Homo sapiens, Fibroblast).

With `CCCCCCCCCCCCCCCC[n+]1ccc(C(=O)NN=Cc2ccc[n+](CCCCCCCCCCCCCCCC)c2)cc1` [Compound 33, 1-Hexadecyl-3-((2-(1-hexadecylpyridin-1-ium-4-carbonyl)hydrazono)methyl)pyridin-1-ium Trifluoroacetate], the IC50 in the data set on A549 lung cancer cells (48 h) is 87.8 µM; in the data set on H1299 lung cancer cells (48 h), 92.3 µM; in the data set with H661 lung cancer cells (48 h) it was 100 µM; in the data set with human dermal fibroblasts, over 300 µM.

Consider `CCCCCCCCCCCCCCCCCC[n+]1ccc(C(=O)NN=Cc2ccc[n+](CCCCCCCCCCCCCCCCCC)c2)cc1` [Compound 35, 1-Octadecyl-3-((2-(1-octadecylpyridin-1-ium-4-carbonyl)hydrazono)methyl)pyridin-1-ium Tetrafluoroborate], for which the IC50 is 421 µM in the data set on A549 lung cancer cells (48 h), 399 µM in the data set with H1299 lung cancer cells (48 h), 382 µM in the data set on H661 lung cancer cells (48 h) and over 1000 µM with human dermal fibroblasts.

`CCCCCCCCCCCCCCCCCC[n+]1ccc(C(=O)NN=Cc2ccc[n+](CCCCCCCCCCCCCCCCCC)c2)cc1` [Compound 36, 1-Octadecyl-3-((2-(1-octadecylpyridin-1-ium-4-carbonyl)hydrazono)methyl)pyridin-1-ium Trifluoroacetate]: the IC50 in the data set on A549 lung cancer cells (48 h) was 920 µM; in the data set on H1299 lung cancer cells (48 h) it was 947 µM; in the data set with H661 lung cancer cells (48 h), 904 µM; in the data set on human dermal fibroblasts, over 1000 µM.
